The text below walks through data of patent US20120053119A1, “THERAPEUTIC METHOD FOR INCREASING PANCREATIC BETA CELL MASS” (priority 2009, published 2012).

Ends that are not written are not given here.

The test system of assay [1] is insulin producing cells. The following applies: in vitro, equimolar quantities; cited from earlier work.
The test system of assay [2] is Wnt signaling. Nature of the assay: Wnt signaling luciferase reporter assay (TOPflash/FOPflash) in INS-1 cells. In kind it is cell-based. On the technique in general: Reporter assays use an easily measured gene product as a stand-in for the process of interest.
Experimental: Wnt signaling is indicated by the value of TOPflash luciferase activity divided by FOPflash activity. A. Time course of the TOPflash:FOPflash ratio of INS-1 cell treated with 1 nM SDF-1. B. Ratio of TOPflash to FOPflash activity in INS-1 cells treated with increasing doses of SDF-1. C. […] All values are relative to the value of the untreated INS-1 cells. Data are normalized for transfection efficiency by co-transfected beta-galactosidase and represent means±S.D. of three experiments.
All values are relative to the first (leftmost) bar. Statistical significance is depicted as * (p<0.05) when compared with control values (leftmost bar). Data are normalized for transfection efficiency by co-transfected beta-galactosidase and represent means±S.D. of three experiments.
Wnt Signaling Luciferase Reporter Assay (TOPflash) INS-1 cells were plated into 24-well dishes 24 hr before transfection with TOPflash or the mutant, control reporter, FOPflash (1 microg/well) using LipofectAMINE2000 (Invitrogen). Various concentrations of SDF-1 or AMD3100 were then added to the culture medium 24 h following transfection for the indicated period of time. In studies in which inhibitors were used, LY294002 (50 microM), PD98059 (10 microM) or SH-5 (10 nM) were added concomitantly with SDF-1. In studies in which wild-type (wt), dominant-negative (dn) or contitutively-active (ca) forms of kinase were used, dnTCF7L2, dnGSK3beta, caGSK3beta, dnAkt, or caAkt (0.5 microg/well) was cotransfected with TOPflash. Luciferase activity in transfected cells was determined with a luciferase assay kit (Promega).
We examined SDF-1 induction of Wnt signaling using a Wnt signaling reporter assay (TOPflash/FOPflash). The TOPflash and FOPflash constructs contain the luciferase reporter either under the control of consensus TCF7L2-binding sites or mutated TCF7L2-binding sites, respectively. Luciferase activity was measured during 4 hr after addition of 1 nM SDF-1 (FIG. 3A).
For assay [3], the system named is INS-1 or MIN6 cells. Nature of the assay: Thapsigargin-induced apoptosis, caspase-3 activity assay. In kind it is cell-based. Conditions: thapsigargin 1 microM, 16 h. As for the experimental part: FIG. 6. Inhibition of apoptosis by SDF-1 in INS-1 and MIN-6 cells is reversed by knock-down of betacatenin. A. Western blot analysis of extracts from MIN6 cells that were mock treated, thapsigargin-treated (1 μM) and/or siRNA transfected (0.25 mg/ml), by using anti-serum against cleaved caspase-3 (upper panel), anti-serum against cleaved PARP (middle panel) and actin antibody (lower panel) as a loading control. B. Caspase-3 activity (fluorescence/mg proteinx105) of INS-1 or MIN6 cells mock treated, thapsigargin-treated (1 μM) and/or siRNA transfected (0.25 mg/ml). Results are presented as mean±SD for n=3 independent experiments, All values are relative to the first (leftmost) bar. […] Quantification of apoptotic cells is expressed as percent apoptotic cells relative to the total cells counted (lower left panel). […]
Thapsigargin-induced apoptosis in INS-1 or MIN6 cells For western immuoblot assay (Cell Signaling), MIN6 cells were seeded into 6 well plates then treated with 1 microM thapsigargin or DMSO control for 16 h and apoptotic activity was measured by Western immunoblotting using antisera specific for cleaved (active) caspase-3 (Cell signaling #9661) and cleaved (active) PARP (Cell signaling #9548). For caspase-3 assay, INS-1 cells or MIN-6 cells in 24-well plates were treated with 1 microM thapsigargin or DMSO for 16 hand caspase-3 activity was determined (Molecular Probes). […]

Assay [4] concerns INS-1 or Min6 beta cells. Put plainly: SDF-1 mRNA by QPCR in injured beta cells. It is filed as cell-based. Conditions: 3 to 20 hrs. As for the experimental part: FIG. 15. […] INS-1 or Min6 beta cells were treated for 3 to 20 hrs with the stress/apoptosis inducers, thapsigargin, streptozotocin (STZ), or mixtures of cytokines (listed at the bottom of the right lower panel). SDF-1 mRNA was measured in cell extracts by QPCR. Cytokines also stimulate the secretion of SDF-1 Protein (see new FIG. 21).

Assay [5] has as its system INS-1 cells and mouse islets. Put plainly: GLP-1 pro-proliferative and cytoprotective actions. It is filed as cell-based. Conditions: tentative.
Assay [6] relates to mice. Nature of the assay: Infusion of GLP-1(28-36) amide nonapeptide into mice, islet size. It is filed as in vivo. The following applies: infusions into mice, preliminary. The text has this:
(§1) The inventors have done preliminary studies using GLP-1(28-36), a nine amino acid peptide (the “nonapeptide”) cleaved from the C-terminus of GLP-1 (SEQ ID NO:4). In the studies, the inventors used the peptide having an arginine amide at the C-terminus (FIAWLVKGR-amide). […] The nonapeptide works both when applied to cells in vitro/ex vivo and when infused into mice in vivo.

Assay [7] deals with pancreatic beta cell. Nature of the assay: Preliminary studies of nonapeptide on pancreatic beta cell survival and growth. In kind it is cell-based. Conditions: preliminary data.
Source text: as §1

Assay [8] concerns Wnt signaling. Put plainly: Wnt signaling reporter (beta-galactosidase) in isolated islets of TopGal mouse. In kind it is cell-based. The following applies: added with SDF-1, isolated TopGal mouse islets.
Source text: A. Isolated islets express reporter-driven beta-galactosidase. The dark regions mark the expression of beta-galactosidase, an indicator of the activation of the Wnt signaling reporter LacZ transgene. […] B. Polymerase chain reaction showing changes in beta-galactosidase mRNA levels in islets shown in panel A.
Isolated mouse pancreatic islets Mouse islets were isolated (Lacy PE (1994) Pancreatic islet cell transplant. Mt Sinai J. Med. 61:23-31.) from the pancreata of TopGal reporter mice transgenic for the LEF-LacZ Wnt signaling reporter (DasGupta R, Fuchs E (1999) Development. 1999 126:4557-4568.). Freshly isolated islets were treated for 4 hrs with SDF-1 with and without the addition of the Galphai/o inhibitor pertussis toxin (PTX) or the CXCR4 antagonist AMD3100. Betagalactosidase activity was determined by incubation of the islets with X-gal for 6 hrs.
Polymerase chain reaction analyses of betagalactosidase mRNA levels in isolated mouse islets Islets from TopGal mice were harvested after treatments with SDF-1, SDF-1+AMD3100, and SDF-1+pertussis toxin. RNA was extracted and beta galactosidase mRNA levels were measured by PCR using a SYBR Green QPCR kit (Stratagene) with the primers as described in Liu Z, Habener J F 2008 Glucagon-like Peptide-1 Activation of TCF7L2-dependent Wnt Signaling Enhances Pancreatic Beta Cell Proliferation. […]
Assay [9] has as its system INS-1 cells. Nature of the assay: ATP-lite cell viability assay, serum deprivation, SDF-1 with AMD3100. It is filed as cell-based. Conditions: serum-free, SDF-1 2 nM. On the procedure: ATP lite cell viability assay: INS-1 cells were plated in 96 well plates. SDF-1 (2 nM) and AMD3100 were added at day 0, 2, 4 and cell viability was measured at day 6 using relative light units (RLU) as compared to control. N=6.
INS-1 cells were plated in 96 well plates in control medium (no serum) or a medium containing 2% serum. SDF-1 (2 nM) and SDF-1 (2 nM) along with various concentrations of AMD3100 (2 uM, 0.4 uM, 80 nM, 16 nM) were added to different cell groups incubated in serum-free medium at days 0, 2, 4, and cell viability was measured at day 6 using relative light units (RLU) as compared to control.

In assay [10] the test system is INS-1 cells. The following applies: serum-free, SDF-1 2 nM, AMD3100 16 nM-2 uM, day 6. As for the experimental part:
INS-1 cells were plated in 96 well plates in control medium (no serum) or a medium containing 2% serum.

Take “Exendin-4: GLP-1 agonist peptide from Gila Monster salivary glands, SEQ ID NO: 3”: in assay [1], the “potency at causing insulin release” value was “more potent than GLP-1”.

Consider `COc1cccc(-c2cc(=O)c3ccccc3o2)c1N` [PD98059], for which the “effect on SDF-1-stimulated TOPflash activity” value in assay [2] (LY294002 50 microM, PD98059 10 microM, SH-5 10 nM) is on record as “does not affect”. The “effect on basal level TOPflash activity” value in assay [2] (no SDF-1) is given as “do not affect”.

Regarding `C/C=C(/C)C(=O)O[C@H]1C(C)=C2[C@H]([C@@H]1OC(=O)CCCCCCC)[C@@](C)(OC(C)=O)C[C@H](OC(=O)CCC)[C@@]1(O)[C@H]2OC(=O)[C@@]1(C)O` [Thapsigargin, reference compound], the “induction of caspase-3 activity” value in assay [3] is “threefold”. For the same compound, the “SDF-1 expression (mRNA) in injured beta cells” value in [4] is recorded as “induces SDF-1 expression”.

“glucoincretin hormone, SEQ ID NO: 2, HAEGTFTSDVSSYLEGQAAKEFIAWLVKGRG [GLP-1]”: in assay [5], the Kd amounted to 1 nM and the “cytoprotective actions (concentration)” value is on record as 10 nM.

In the case of `CN(N=O)C(=O)N[C@H]1C(O)O[C@H](CO)[C@@H](O)[C@@H]1O` (mixture of isomers) [streptozotocin], the “SDF-1 expression (mRNA) in injured beta cells” value in [4] is given as “induces SDF-1 expression”.

As for “FIAWLVKGR-amide (FIAWLVKGR-NH2) [GLP-1(28-36) amide nonapeptide]”, the “islet size in mice” value in assay [6] is “enhances islet size”. Also, in [7], the “pancreatic beta cell survival and growth” value is recorded as “profound effects”.

As to `c1cc(CN2CCCNCCNCCCNCC2)ccc1CN1CCCNCCNCCCNCC1` [AMD3100], in assay [8], the “effect on SDF-1-induced Wnt signaling response in TopGal islets” value is given as “inhibition”. Further, in [2] (coincubation with increasing amounts), the “effect on SDF-1 activation of luciferase activity (TOPflash/FOPflash)” value is “antagonized”. Moreover, in [9] (AMD3100 16 nM-2 uM), the “effect on SDF-1 mediated cell survival” value is “partially and dose-dependently blocked”. The “effective concentration for blocking SDF-1 mediated cell survival” value in assay [9] (day 6) is reported as “around 1 uM”. Moreover, the “effect on SDF-1 mediated insulin production” value in assay [10] was “partially and dose-dependently blocked”.

The term Kd denotes the constant that tells how readily two partners part at equilibrium. A high value points to a looser complex.
